Reference: the NIST ThermoML archive (doi:10.1021/acs.jced.8b00403)

Assay: wn = mass fraction of the nth substance listed
Details: 101.33 kPa, Liquid; for viscosity: Concentric cylinders viscometry; for mass density: Vibrating tube method

CC(O)CO (stereo unspecified) [1,2-propanediol] + O
Details	mass density [kg/m3]	viscosity [mPa·s]
253.15 K, w1 = 0.5005	1062.5	84.94
253.15 K, w1 = 0.672	1070.8	204.36
253.15 K, w1 = 0.8044	1071.6	415.71
253.15 K, w1 = 0.9481	1068.2	1067
253.15 K, w1 = 1	1065.8	1772.4
258.15 K, w1 = 0.3312	1041.7	21.95
258.15 K, w1 = 0.5005	1059.8	55.34
258.15 K, w1 = 0.672	1067.6	128.54
258.15 K, w1 = 0.8044	1068.1	256.2
258.15 K, w1 = 0.9481	1064.7	638.89
258.15 K, w1 = 1	1062.2	1038.3
263.15 K, w1 = 0.3312	1040	15.59
263.15 K, w1 = 0.5005	1056.9	37.52
263.15 K, w1 = 0.672	1064.3	84.22
263.15 K, w1 = 0.8044	1064.5	164.62
263.15 K, w1 = 0.9481	1061	396.61
263.15 K, w1 = 1	1058.6	631.08
268.15 K, w1 = 0.198	1021.7	5.78
268.15 K, w1 = 0.3312	1038.15	11.45
268.15 K, w1 = 0.5005	1054	26.37
268.15 K, w1 = 0.672	1060.9	57.22
268.15 K, w1 = 0.8044	1061.1	109.37
268.15 K, w1 = 0.9481	1057.4	254.76
268.15 K, w1 = 1	1054.9	396.99
273.15 K, w1 = 0.0988	1009.8	2.877
273.15 K, w1 = 0.198	1020.8	4.552
273.15 K, w1 = 0.3312	1036.3	8.655
273.15 K, w1 = 0.5005	1051.1	19.12
273.15 K, w1 = 0.672	1057.5	40.16
273.15 K, w1 = 0.8044	1057.6	75.05
273.15 K, w1 = 0.9481	1053.8	169.13
273.15 K, w1 = 1	1051.3	258
283.15 K, w1 = 0.0988	1008.2	1.991
283.15 K, w1 = 0.198	1017.8	3.017
283.15 K, w1 = 0.3312	1031.2	5.306
283.15 K, w1 = 0.5005	1044.6	10.83
283.15 K, w1 = 0.672	1050.5	21.24
283.15 K, w1 = 0.8044	1050.4	38.42
283.15 K, w1 = 0.9481	1045.6	86.69
283.15 K, w1 = 1	1042.9	116.68
293.15 K, w1 = 0.0988	1005.7	1.454
293.15 K, w1 = 0.198	1014.5	2.171
293.15 K, w1 = 0.3312	1026.3	3.536
293.15 K, w1 = 0.5005	1038.1	6.741
293.15 K, w1 = 0.672	1043.2	12.58
293.15 K, w1 = 0.8044	1042.9	21.75
293.15 K, w1 = 0.9481	1038.2	45.66
293.15 K, w1 = 1	1035.5	59.75
